Test results as given in patent US10765114B2, “4-amino-6-(pyridyl and 2-substitutedphenyl)-picolinates and 6-amino-2-(pyridyl and 2-substitutedphenyl)-pyrimidine-4-carboxylates and their use as herbicides” (Dow AgroSciences LLC, priority 2013, dated 2020).

Tested on: Key Broadleaf Weed and Crop Species
Assay: Post-Emergent Test II (Table 5)
Assay type: in vivo
Settings: Abutilon theophrasti, post-emergence, 336 h, ABUTH: velvetleaf (Abutilon theophrasti), application rate 70 (kg ai/ha; footnote: g ai/ha), read-out: Visual Growth Reduction (%) 14 Days After Application ABUTH
Summary of the method: (§1)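 Growth stage at treatment: first or second true leaf. Application: compound in acetone/DMSO diluted into an adjuvant-containing aqueous mix, sprayed at 187 L/ha at several rates. Assessment: visual 0-100% injury at 14 days against untreated plants.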

Row | SMILES | pest or weed control at 70 g/ha [%]
1 | COC(=O)c1nc(-c2ccc(OC)nc2)c(F)c(N)c1Cl [Compound 62] | 95 to 100

Same assay, conditions: Abutilon theophrasti, post-emergence, 336 h, ABUTH: velvetleaf (Abutilon theophrasti), application rate 140 (kg ai/ha; footnote: g ai/ha), read-out: Visual Growth Reduction (%) 14 Days After Application ABUTH

Row | SMILES | pest or weed control at 140 g/ha [%]
2 | COC(=O)c1nc(-c2ccc(OC)nc2)c(F)c(N)c1Cl [Compound 62] | 95 to 100

Same assay, conditions: Amaranthus retroflexus, post-emergence, 336 h, AMARE: redroot pigweed (Amaranthus retroflexus), application rate 70 (kg ai/ha; footnote: g ai/ha), read-out: Visual Growth Reduction (%) 14 Days After Application AMARE

Row | SMILES | pest or weed control at 70 g/ha [%]
3 | COC(=O)c1nc(-c2ccc(OC)nc2)c(F)c(N)c1Cl [Compound 62] | 95 to 100

Same assay, conditions: Amaranthus retroflexus, post-emergence, 336 h, AMARE: redroot pigweed (Amaranthus retroflexus), application rate 140 (kg ai/ha; footnote: g ai/ha), read-out: Visual Growth Reduction (%) 14 Days After Application AMARE

Row | SMILES | pest or weed control at 140 g/ha [%]
4 | COC(=O)c1nc(-c2ccc(OC)nc2)c(F)c(N)c1Cl [Compound 62] | 95 to 100

Same assay, conditions: Brassica napus, post-emergence, 336 h, BRSSS: oilseed rape, canola (Brassica napus), application rate 70 (kg ai/ha; footnote: g ai/ha), read-out: Visual Growth Reduction (%) 14 Days After Application BRSSS

Row | SMILES | pest or weed control at 70 g/ha [%]
5 | COC(=O)c1nc(-c2ccc(OC)nc2)c(F)c(N)c1Cl [Compound 62] | 60 to 74

Same assay, conditions: Brassica napus, post-emergence, 336 h, BRSSS: oilseed rape, canola (Brassica napus), application rate 140 (kg ai/ha; footnote: g ai/ha), read-out: Visual Growth Reduction (%) 14 Days After Application BRSSS

Row | SMILES | pest or weed control at 140 g/ha [%]
6 | COC(=O)c1nc(-c2ccc(OC)nc2)c(F)c(N)c1Cl [Compound 62] | 60 to 74

Same assay, conditions: Chenopodium album, post-emergence, 336 h, CHEAL: lambsquarters (Chenopodium album), application rate 70 (kg ai/ha; footnote: g ai/ha), read-out: Visual Growth Reduction (%) 14 Days After Application CHEAL

Row | SMILES | pest or weed control at 70 g/ha [%]
7 | COC(=O)c1nc(-c2ccc(OC)nc2)c(F)c(N)c1Cl [Compound 62] | 95 to 100

Same assay, conditions: Chenopodium album, post-emergence, 336 h, CHEAL: lambsquarters (Chenopodium album), application rate 140 (kg ai/ha; footnote: g ai/ha), read-out: Visual Growth Reduction (%) 14 Days After Application CHEAL

Row | SMILES | pest or weed control at 140 g/ha [%]
8 | COC(=O)c1nc(-c2ccc(OC)nc2)c(F)c(N)c1Cl [Compound 62] | 95 to 100

Same assay, conditions: Euphorbia heterophylla, post-emergence, 336 h, EPHHL: wild poinsettia (Euphorbia heterophylla), application rate 70 (kg ai/ha; footnote: g ai/ha), read-out: Visual Growth Reduction (%) 14 Days After Application EPHHL

Row | SMILES | pest or weed control at 70 g/ha [%]
9 | COC(=O)c1nc(-c2ccc(OC)nc2)c(F)c(N)c1Cl [Compound 62] | 95 to 100

Same assay, conditions: Euphorbia heterophylla, post-emergence, 336 h, EPHHL: wild poinsettia (Euphorbia heterophylla), application rate 140 (kg ai/ha; footnote: g ai/ha), read-out: Visual Growth Reduction (%) 14 Days After Application EPHHL

Row | SMILES | pest or weed control at 140 g/ha [%]
10 | COC(=O)c1nc(-c2ccc(OC)nc2)c(F)c(N)c1Cl [Compound 62] | 95 to 100

Same assay, conditions: Helianthus annuus, post-emergence, 336 h, HELAN: sunflower (Helianthus annuus), application rate 70 (kg ai/ha; footnote: g ai/ha), read-out: Visual Growth Reduction (%) 14 Days After Application HELAN

Row | SMILES | pest or weed control at 70 g/ha [%]
11 | COC(=O)c1nc(-c2ccc(OC)nc2)c(F)c(N)c1Cl [Compound 62] | 95 to 100

Same assay, conditions: Helianthus annuus, post-emergence, 336 h, HELAN: sunflower (Helianthus annuus), application rate 140 (kg ai/ha; footnote: g ai/ha), read-out: Visual Growth Reduction (%) 14 Days After Application HELAN

Row | SMILES | pest or weed control at 140 g/ha [%]
12 | COC(=O)c1nc(-c2ccc(OC)nc2)c(F)c(N)c1Cl [Compound 62] | 95 to 100

Same assay, conditions: Viola tricolor, post-emergence, 336 h, VIOTR: wild pansy (Viola tricolor), application rate 70 (kg ai/ha; footnote: g ai/ha), read-out: Visual Growth Reduction (%) 14 Days After Application VIOTR

Row | SMILES | pest or weed control at 70 g/ha [%]
13 | COC(=O)c1nc(-c2ccc(OC)nc2)c(F)c(N)c1Cl [Compound 62] | 0 to 29

Same assay, conditions: Viola tricolor, post-emergence, 336 h, VIOTR: wild pansy (Viola tricolor), application rate 140 (kg ai/ha; footnote: g ai/ha), read-out: Visual Growth Reduction (%) 14 Days After Application VIOTR

Row | SMILES | pest or weed control at 140 g/ha [%]
14 | COC(=O)c1nc(-c2ccc(OC)nc2)c(F)c(N)c1Cl [Compound 62] | 0 to 29

Tested on: not given
Assay: not given
Settings: not given

Row | melting point [°C] | SMILES
15 | 168 to 169 | COC(=O)c1nc(-c2ccc(OC)nc2)c(F)c(N)c1Cl [Compound 62]

Tested on: Key Grass and Sedge Weeds as well as Grass Crops
Assay: Post-Emergent Test II (Table 6)
Assay type: in vivo
Settings: post-emergence, 336 h, CYPSS, 70 g ai/ha, 14 days after application, read-out: Visual Growth Reduction (%) 14 Days After Application CYPSS
Summary of the method: as §1

Row | SMILES | pest or weed control at 70 g/ha [%]
16 | COC(=O)c1nc(-c2ccc(OC)nc2)c(F)c(N)c1Cl [Compound 62] | 0 to 29

Same assay, conditions: post-emergence, 336 h, CYPSS, 140 g ai/ha, 14 days after application, read-out: Visual Growth Reduction (%) 14 Days After Application CYPSS

Row | SMILES | pest or weed control at 140 g/ha [%]
17 | COC(=O)c1nc(-c2ccc(OC)nc2)c(F)c(N)c1Cl [Compound 62] | 30 to 44

Same assay, conditions: post-emergence, 336 h, DIGSA: crabgrass (Digitaria sanguinalis), 70 g ai/ha, 14 days after application, read-out: Visual Growth Reduction (%) 14 Days After Application DIGSA

Row | SMILES | pest or weed control at 70 g/ha [%]
18 | COC(=O)c1nc(-c2ccc(OC)nc2)c(F)c(N)c1Cl [Compound 62] | 75 to 84

Same assay, conditions: post-emergence, 336 h, DIGSA: crabgrass (Digitaria sanguinalis), 140 g ai/ha, 14 days after application, read-out: Visual Growth Reduction (%) 14 Days After Application DIGSA

Row | SMILES | pest or weed control at 140 g/ha [%]
19 | COC(=O)c1nc(-c2ccc(OC)nc2)c(F)c(N)c1Cl [Compound 62] | 60 to 74

Same assay, conditions: post-emergence, 336 h, ECHSS, 70 g ai/ha, 14 days after application, read-out: Visual Growth Reduction (%) 14 Days After Application ECHSS

Row | SMILES | pest or weed control at 70 g/ha [%]
20 | COC(=O)c1nc(-c2ccc(OC)nc2)c(F)c(N)c1Cl [Compound 62] | 95 to 100

Same assay, conditions: post-emergence, 336 h, ECHSS, 140 g ai/ha, 14 days after application, read-out: Visual Growth Reduction (%) 14 Days After Application ECHSS

Row | SMILES | pest or weed control at 140 g/ha [%]
21 | COC(=O)c1nc(-c2ccc(OC)nc2)c(F)c(N)c1Cl [Compound 62] | 95 to 100

Same assay, conditions: post-emergence, 336 h, ORYSS (crop), 70 g ai/ha, 14 days after application, read-out: Visual Growth Reduction (%) 14 Days After Application ORYSS

Row | SMILES | pest or weed control at 70 g/ha [%]
22 | COC(=O)c1nc(-c2ccc(OC)nc2)c(F)c(N)c1Cl [Compound 62] | 0 to 29

Same assay, conditions: post-emergence, 336 h, ORYSS (crop), 140 g ai/ha, 14 days after application, read-out: Visual Growth Reduction (%) 14 Days After Application ORYSS

Row | SMILES | pest or weed control at 140 g/ha [%]
23 | COC(=O)c1nc(-c2ccc(OC)nc2)c(F)c(N)c1Cl [Compound 62] | 0 to 29

Same assay, conditions: post-emergence, 336 h, SETFA: giant foxtail (Setaria faberi), 70 g ai/ha, 14 days after application, read-out: Visual Growth Reduction (%) 14 Days After Application SETFA

Row | SMILES | pest or weed control at 70 g/ha [%]
24 | COC(=O)c1nc(-c2ccc(OC)nc2)c(F)c(N)c1Cl [Compound 62] | 60 to 74

Same assay, conditions: post-emergence, 336 h, SETFA: giant foxtail (Setaria faberi), 140 g ai/ha, 14 days after application, read-out: Visual Growth Reduction (%) 14 Days After Application SETFA

Row | SMILES | pest or weed control at 140 g/ha [%]
25 | COC(=O)c1nc(-c2ccc(OC)nc2)c(F)c(N)c1Cl [Compound 62] | 85 to 94

Same assay, conditions: post-emergence, 336 h, SORVU: grain sorghum (Sorghum vulgare), 70 g ai/ha, 14 days after application, read-out: Visual Growth Reduction (%) 14 Days After Application SORVU

Row | SMILES | pest or weed control at 70 g/ha [%]
26 | COC(=O)c1nc(-c2ccc(OC)nc2)c(F)c(N)c1Cl [Compound 62] | 60 to 74

Same assay, conditions: post-emergence, 336 h, SORVU: grain sorghum (Sorghum vulgare), 140 g ai/ha, 14 days after application, read-out: Visual Growth Reduction (%) 14 Days After Application SORVU

Row | SMILES | pest or weed control at 140 g/ha [%]
27 | COC(=O)c1nc(-c2ccc(OC)nc2)c(F)c(N)c1Cl [Compound 62] | 75 to 84

Same assay, conditions: post-emergence, 336 h, TRZSS (crop), 70 g ai/ha, 14 days after application, read-out: Visual Growth Reduction (%) 14 Days After Application TRZSS

Row | SMILES | pest or weed control at 70 g/ha [%]
28 | COC(=O)c1nc(-c2ccc(OC)nc2)c(F)c(N)c1Cl [Compound 62] | 45 to 59

Same assay, conditions: post-emergence, 336 h, TRZSS (crop), 140 g ai/ha, 14 days after application, read-out: Visual Growth Reduction (%) 14 Days After Application TRZSS

Row | SMILES | pest or weed control at 140 g/ha [%]
29 | COC(=O)c1nc(-c2ccc(OC)nc2)c(F)c(N)c1Cl [Compound 62] | 45 to 59

Same assay, conditions: post-emergence, 336 h, ZEAMX: maize, corn (Zea mays), 70 g ai/ha, 14 days after application, read-out: Visual Growth Reduction (%) 14 Days After Application ZEAMX

Row | SMILES | pest or weed control at 70 g/ha [%]
30 | COC(=O)c1nc(-c2ccc(OC)nc2)c(F)c(N)c1Cl [Compound 62] | 95 to 100

Same assay, conditions: post-emergence, 336 h, ZEAMX: maize, corn (Zea mays), 140 g ai/ha, 14 days after application, read-out: Visual Growth Reduction (%) 14 Days After Application ZEAMX

Row | SMILES | pest or weed control at 140 g/ha [%]
31 | COC(=O)c1nc(-c2ccc(OC)nc2)c(F)c(N)c1Cl [Compound 62] | 95 to 100
